For assay [1], the system named is Aspergillus flavus. Nature of the assay: Antifungal activity against Aspergillus flavus by measuring inhibition zone after 48 hrs. Format: functional.
Assay [2] has as its system Staphylococcus aureus. Nature of the assay: Antibacterial activity against Staphylococcus aureus after 24 hrs by broth dilution method. Format: functional. On the technique in general: In broth dilution the organism is exposed to a series of concentrations in liquid medium.
The subject of assay [3] is Escherichia coli. Put plainly: Antibacterial activity against Escherichia coli after 24 hrs by broth dilution method. Format: functional.
Assay [4] relates to Aspergillus flavus. Nature of the assay: Antifungal activity against Aspergillus flavus after 48 hrs. In kind it is functional.
The subject of assay [5] is Trichophyton mentagrophytes. Nature of the assay: Antifungal activity against Trichophyton mentagrophytes by measuring inhibition zone after 48 hrs. Format: functional.
In assay [6] the test system is Trichophyton mentagrophytes. Nature of the assay: Antifungal activity against Trichophyton mentagrophytes after 48 hrs. In kind it is functional.
Assay [7] has as its system Talaromyces marneffei. Nature of the assay: Antifungal activity against Penicillium marneffei by measuring inhibition zone after 48 hrs. In kind it is functional.
Assay [8] has as its system Talaromyces marneffei. Nature of the assay: Antifungal activity against Penicillium marneffei after 48 hrs. In kind it is functional.
For assay [9], the system named is Candida albicans. Nature of the assay: Antifungal activity against Candida albicans by measuring inhibition zone after 48 hrs. In kind it is functional.
Assay [10] concerns Candida albicans. Nature of the assay: Antifungal activity against Candida albicans after 48 hrs. In kind it is functional.
Assay [11] deals with Aspergillus fumigatus. Nature of the assay: Antifungal activity against Aspergillus fumigatus by measuring inhibition zone after 48 hrs. In kind it is functional.
Assay [12] relates to Aspergillus fumigatus. Nature of the assay: Antifungal activity against Aspergillus fumigatus after 48 hrs. Format: functional.
Assay [13] relates to Pseudomonas aeruginosa. Nature of the assay: Antibacterial activity against Pseudomonas aeruginosa after 24 hrs by broth dilution method. In kind it is functional.
Assay [14] deals with Klebsiella pneumoniae. Put plainly: Antibacterial activity against Klebsiella pneumoniae after 24 hrs by broth dilution method. Format: functional.
In assay [15] the test system is Streptococcus pyogenes. Nature of the assay: Antibacterial activity against Streptococcus pyogenes after 24 hrs by broth dilution method. In kind it is functional.
Assay [16] concerns Staphylococcus aureus. Put plainly: Antibacterial activity against Staphylococcus aureus after 24 hrs. In kind it is functional.
In assay [17] the test system is Escherichia coli. Nature of the assay: Antibacterial activity against Escherichia coli after 24 hrs. In kind it is functional.
Assay [18] deals with Pseudomonas aeruginosa. Put plainly: Antibacterial activity against Pseudomonas aeruginosa after 24 hrs. In kind it is functional.
Assay [19] concerns Klebsiella pneumoniae. Nature of the assay: Antibacterial activity against Klebsiella pneumoniae after 24 hrs. In kind it is functional.
Assay [20] has as its system Streptococcus pyogenes. Nature of the assay: Antibacterial activity against Streptococcus pyogenes after 24 hrs. In kind it is functional.
The test system of assay [21] is Trichophyton mentagrophytes. Nature of the assay: Antifungal activity against Trichophyton mentagrophytes at >100 ug/mL after 48 hrs. In kind it is functional, organism-based.
Assay [22] has as its system Candida albicans. Nature of the assay: Antifungal activity against Candida albicans at >100 ug/mL after 48 hrs. In kind it is functional, organism-based.
For assay [23], the system named is Aspergillus fumigatus. Put plainly: Antifungal activity against Aspergillus fumigatus at >100 ug/mL after 48 hrs. Format: functional, organism-based.
Assay [24] has as its system Klebsiella pneumoniae. Put plainly: Antibacterial activity against Klebsiella pneumoniae at >100 ug/mL after 24 hrs by broth dilution method. Format: functional, organism-based.
Assay [25] has as its system Aspergillus flavus. Put plainly: Antifungal activity against Aspergillus flavus at >100 ug/mL after 48 hrs. Format: functional, organism-based.
Assay [26] relates to Talaromyces marneffei. Nature of the assay: Antifungal activity against Penicillium marneffei at >100 ug/mL after 48 hrs. Format: functional, organism-based.

In brackets after ≈: the same amount, converted by molar mass. Activity calls are given as the source filed them.

The results in this text go back to ChEMBL document CHEMBL1275296, “Synthesis and antimicrobial studies of thiazolotriazinones” (2010).

In the case of `O=c1c(Cc2ccc(Cl)cc2Cl)nnc2scc(-c3cc(F)c(Cl)cc3Cl)n12`, the “inhibition zone (IZ)” value in assay [1] amounted to 21 mm; in [5], 22 mm; in assay [7], 25 mm; in assay [9] it was 20 mm; in assay [11], 24 mm; in assay [16] it was 21 mm. Also, the “inhibition zone (IZ)” value in [17] is 29 mm; in assay [18], 31 mm; in assay [19] it was 19 mm; in assay [20] it was 24 mm. Further, the MIC in [2], in assay [3], in assay [4], in assay [6], in [8] and in assay [10] was 6.25 µg/mL (≈ 13.2 µM) throughout. Further, the minimal inhibitory concentration (MIC) in assay [12], in [13], in [14] and in assay [15] was 6.25 µg/mL (≈ 13.2 µM) throughout.
`O=c1c(Cc2ccc(Cl)cc2Cl)nnc2scc(-c3ccc(Cl)cc3)n12`: the “inhibition zone (IZ)” value amounted to 21 mm in [1]; 21 mm in [5]; 23 mm in assay [7]; 18 mm in assay [9]; 24 mm in [11]; 21 mm in [16]. Besides, the “inhibition zone (IZ)” value in assay [17] stood at 29 mm; in assay [18], 32 mm; in [19], 19 mm; in assay [20] it was 23 mm. Also, the minimal inhibitory concentration (MIC) in assay [2], in assay [3], in assay [4], in assay [6], in [8] and in [10] was 6.25 µg/mL (≈ 14.8 µM) each time. In addition, the minimum inhibitory concentration (MIC) in assay [12], in [13], in assay [14] and in assay [15] was 6.25 µg/mL (≈ 14.8 µM) each time.
As to `O=c1c(Cc2ccc(Cl)cc2Cl)nnc2scc(-c3ccc([N+](=O)[O-])cc3)n12`, the “inhibition zone (IZ)” value in assay [1] was determined as 14 mm; in [7], 10 mm; in assay [16], 20 mm; in assay [17], 15 mm; in [18], 27 mm; in assay [20] it was 17 mm. Besides, the MIC – broadly, the smallest concentration in the dilution series that meets the test's criterion for growth inhibition – worked out at 6.25 µg/mL (≈ 14.4 µM) in [2]; 12.5 µg/mL (≈ 28.8 µM) in [3]; 12.5 µg/mL (≈ 28.8 µM) in assay [4]; 12.5 µg/mL (≈ 28.8 µM) in assay [8]; 6.25 µg/mL (≈ 14.4 µM) in [13]; 6.25 µg/mL (≈ 14.4 µM) in [15]. Also, the inhibition result in assay [21], in assay [22], in assay [23] and in assay [24] was “inactive” each time.
For the molecule `O=c1c(Cc2ccc(Cl)cc2)nnc2scc(-c3cc(F)c(Cl)cc3Cl)n12`, the “inhibition zone (IZ)” value was 18 mm in assay [1]; 21 mm in assay [5]; 25 mm in assay [7]; 17 mm in assay [9]; 25 mm in assay [11]; 21 mm in assay [16]. In addition, the “inhibition zone (IZ)” value was 27 mm in assay [17], 29 mm in [18], 18 mm in assay [19] and 24 mm in assay [20]. Besides, the minimal inhibitory concentration (MIC) in assay [2], in [3], in [4], in assay [6], in [8] and in assay [10] was 6.25 µg/mL (≈ 14.2 µM) throughout. The MIC in [12], in assay [13], in assay [14] and in assay [15] was 6.25 µg/mL (≈ 14.2 µM) each time.
With `O=c1c(Cc2ccc(Cl)cc2)nnc2scc(-c3ccc(Br)cc3)n12`, the MIC in assay [2] is 6.25 µg/mL (≈ 14.4 µM); in assay [3], 25 µg/mL (≈ 57.8 µM); in [6] it was 12.5 µg/mL (≈ 28.9 µM); in assay [10], 6.25 µg/mL (≈ 14.4 µM); in assay [12] it was 25 µg/mL (≈ 57.8 µM); in [13], 12.5 µg/mL (≈ 28.9 µM). Besides, the MIC in assay [14] and in assay [15] was 6.25 µg/mL (≈ 14.4 µM) in each case. Also, the inhibition entry in [25] and in assay [26] was “inactive” each time. For the same molecule, the “inhibition zone (IZ)” value in assay [5] turned out to be 12 mm; in assay [9], 17 mm; in [11], 8 mm; in assay [16] it was 23 mm; in assay [17] it was 9 mm; in assay [18] it was 14 mm. For the same molecule, the figures for the “inhibition zone (IZ)” value in assay [19] and in assay [20] were 19 mm and 21 mm, respectively.
Consider `C[C@@H]1[C@H](O)[C@@H](C)/C=C/C=C/C=C/C=C/C=C/C=C/C=C/[C@H](O[C@@H]2O[C@H](C)[C@@H](O)[C@H](N)[C@@H]2O)C[C@@H]2O[C@](O)(C[C@@H](O)C[C@@H](O)[C@H](O)CC[C@@H](O)C[C@@H](O)CC(=O)O[C@H]1C)C[C@H](O)[C@H]2C(=O)O` [AMPHOTERICIN B], for which the “inhibition zone (IZ)” value worked out at 21 mm in assay [1]; 23 mm in assay [5]; 25 mm in assay [7]; 19 mm in [9]; 25 mm in assay [11]. In addition, the MIC in assay [4], in [6], in assay [8], in [10] and in assay [12] was 6.25 µg/mL (≈ 6.76 µM) throughout.
